Measurements as given in patent US7279304B2, “Methods for preparation of macrocyclic molecules and macrocyclic molecules prepared thereby” (President and Fellows of Harvard College, priority 2000, dated 2007).
Where two headings read alike, the source gives them in different places. Where a SMILES comes first, the peptide text is derived from it. [ ]: non-standard residue; d: D form. The star is where a group is joined. ξ: configuration not given here. Butanoyl(3R-OH) = C[C@@H](O)CC(=O)*; dPhLac = O=C(O)[C@H](O)Cc1ccccc1; dOrn = NCCC[C@@H](N)C(=O)O; Hiv = CC(C)[C@H](O)C(=O)O; SCH2CH2NHAc = CC(=O)NCCS*; Orn = NCCC[C@H](N)C(=O)O; ξP = O=C(O)C1CCCN1

Key:
[1] = biological target: T1, TycC TE (excised TE domain protein from the tyrocidine NRPS) (Brevibacillus parabrevis, UniProt O30409); type: biochemical; conditions: for cyclization rate compared with the substrate in Example 3: data not shown; for kcat / Km: Table 1, macrocyclization of peptide-SNAC substrate, 25 mM MOPS, pH 7.0; for thioester hydrolysis by TycC TE (result in words): kinetic parameters similar to the wild-type substrate (Ex. 3)
T1 construct: excised TE domain protein from the tyrocidine NRPS (TycC TE); made in house
T1 sequence (O30409 6238-6486): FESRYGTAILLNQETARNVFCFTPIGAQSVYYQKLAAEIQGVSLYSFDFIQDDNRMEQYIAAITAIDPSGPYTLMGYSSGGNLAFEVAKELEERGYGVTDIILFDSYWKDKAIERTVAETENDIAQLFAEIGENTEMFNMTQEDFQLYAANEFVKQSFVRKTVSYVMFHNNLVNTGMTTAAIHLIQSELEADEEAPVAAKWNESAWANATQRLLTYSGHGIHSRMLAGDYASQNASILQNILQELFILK
Protocol: Macrocyclization reactions were carried out in 25 mM MOPS, pH 7.0 in a total volume of 400 μL. Reactions were initiated by addition of TycC TE and quenched at various time points by the addition of 25 μL 1.7% TFA/water, flash frozen in liquid nitrogen and stored at −80° C. (for Ex. 13, reactions were quenched by the addition of sodium phosphate, pH 5.3, to 100 mM). The reactions were then thawed, 85 μL acetonitrile added, and analyzed by analytical HPLC with monitoring at 220 nm (20% to 80% acetonitrile in 0.1% TFA/water, or in 25 mM potassium phosphate, pH 5.3 for Ex. 13, over 35 minutes, Vydac protein and peptide C18 column). Initial rates were calculated using 1 minute time points. Peptide-SNAC and reaction product concentrations were determined for all Tyr-containing peptides based on the estimated extinction coefficient ε (280 nm)=1,280 M^−1 cm^−1, which agrees with the experimentally determined ε (280 nm) of Ex. 1. For peptide-SNACs not containing Tyr, ε (220 nm) was determined experimentally, and concentrations of corresponding cyclic products determined by assuming equal ε (220 nm) values for the peptide-SNAC and cyclic product.

[2] = biological target: T2, excised TE domain protein from the surfactin synthetase (Bacillus subtilis, UniProt Q08787); experiment: Cyclization of thioester substrate to macrolactone by excised surfactin synthetase TE domain; type: biochemical
T2 construct: the excised TE domain protein from the surfactin synthetase protein system; made in house
T2 sequence (Q08787 1059-1271): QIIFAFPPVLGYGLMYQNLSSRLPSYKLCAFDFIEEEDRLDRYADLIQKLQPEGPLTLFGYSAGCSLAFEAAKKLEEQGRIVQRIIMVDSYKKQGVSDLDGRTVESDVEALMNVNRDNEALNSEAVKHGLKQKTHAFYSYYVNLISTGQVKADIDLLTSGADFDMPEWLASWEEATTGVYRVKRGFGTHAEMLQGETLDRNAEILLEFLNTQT
Text: In accord with the present invention, other linear substrate molecules can be cyclized by other excised TE domain proteins besides the TE domain protein excised from the tyrocidine NRPS. […] The excised surfactin TE domain protein selectively cyclizes substrates with the (R)-hydroxybutanamide nucleophile versus substrates with the (S)-hydroxybutamide nucleophile.
The observed specificity of the surfactin TE domain supports that TE domains can cyclize a variety of substrates provided that certain key recognition elements that are generally near the parts of the molecule that are joined in the cyclization reaction are present. For example, substrate 27 contains a change in the sequence of the heptapeptide compared to the wild-type surfactin sequence (D-Leu3 is changed to D-Orn), but this substrate is nevertheless cyclized by the excised TE domain from surfactin synthetase. When the (R)-hydroxybutanamide nucleophile in compound 27 was changed to a (S)-hydroxybutanamide nucleophile (a change near the parts of the molecule joined by the cylization reaction), cyclization activity was abolished.

For `CC(=O)NCCSC(=O)[C@H](CC(C)C)NC(=O)[C@H](CCCN)NC(=O)[C@@H](OC(=O)[C@H](Cc1ccc(O)cc1)NC(=O)[C@H](CCC(N)=O)NC(=O)[C@H](CC(N)=O)NC(=O)[C@@H](Cc1ccccc1)NC(=O)[C@H](Cc1ccccc1)NC(=O)C1CCCN1C(=O)[C@H](N)Cc1ccccc1)C(C)C` (stereo partly drawn) [compound 23] (H-[dF][ξP]F[dF]NQY[Hiv][Orn]L-SCH2CH2NHAc), the “cyclization rate compared with the substrate in Example 3” value [1] was “similar”.
For “Phe-Pro-Phe-D-Phe-Asn-Gln-Tyr-Val-Orn-Leu-SNAC [Example 4]”, the “cyclization by TycC TE domain (result in words)” value (from here on “cyclization by TycC TE domain”) [1] was “arrests cyclization activity”, the kcat [1] was 0 and the “thioester hydrolysis by TycC TE (result in words)” value [1] was “observed”.
With `CC(=O)NCCSC(=O)[C@H](CC(C)C)NC(=O)[C@H](CCCN)NC(=O)[C@@H](NC(=O)[C@H](Cc1ccc(O)cc1)NC(=O)[C@H](CCC(N)=O)NC(=O)[C@H](CC(N)=O)NC(=O)[C@@H](Cc1ccccc1)OC(=O)[C@H](Cc1ccccc1)NC(=O)C1CCCN1C(=O)[C@H](N)Cc1ccccc1)C(C)C` (stereo partly drawn) [compound 22] (H-[dF][ξP]F[dPhLac]NQYV[Orn]L-SCH2CH2NHAc) the “cyclization rate compared with the substrate in Example 3” value [1] was “similar”.
With `CC(=O)NCCSC(=O)[C@H](CC(C)C)NC(=O)[C@@H](CC(C)C)NC(=O)[C@H](CC(=O)O)NC(=O)[C@@H](NC(=O)[C@@H](CCCN)NC(=O)[C@H](CC(C)C)NC(=O)[C@H](CCC(=O)O)NC(=O)C[C@@H](C)O)C(C)C` [compound 27] ({Butanoyl(3R-OH)}-EL[dOrn]VD[dL]L-SCH2CH2NHAc) the “cyclization to macrolactone by excised surfactin TE domain” value [2] was “efficiently cyclized”.
Work on `CC(=O)NCCSC(=O)[C@H](CC(C)C)NC(=O)[C@H](CCCN)NC(=O)[C@@H](NC(=O)[C@H](Cc1ccc(O)cc1)NC(=O)[C@H](CCC(N)=O)NC(=O)[C@H](CC(N)=O)NC(=O)[C@@H](Cc1ccccc1)NC(=O)[C@H](Cc1ccccc1)NC(=O)[C@@H]1CCCN1C(=O)[C@H](N)Cc1ccccc1)C(C)C` [Example 3, D-Phe-Pro-Phe-D-Phe-Asn-Gln-Tyr-Val-Orn-Leu-SNAC] (H-[dF]PF[dF]NQYV[Orn]L-SCH2CH2NHAc) yielded a Km [1] of 3 µM.
With “D-Phe-Pro-Val-Orn-Leu-SNAC [pentapeptide-SNAC]” the “chain dimerization and subsequent cyclization to gramicidin S” value ([1]; incubation of pentapeptide-SNAC with TycC TE) was “efficient chain dimerization and subsequent cyclization occurred”.
For “D-Phe-Pro-Val-Orn-Leu-D-Phe-Pro-Val-Orn-Leu-SNAC [Example 17]”, the kcat [1] was 12, the Km ([1]; read-out: KM) was 5 µM and the “KM as compared to Ex. 3” value ([1]; cyclization) was “comparable”. For the same compound, the “reduction in kcat relative to wild-type substrate (Ex. 3)” value ([1]; cyclization) was 5 fold.
In the case of `CC(=O)NCCSC(=O)[C@H](CC(C)C)NC(=O)[C@H](CCCN)NC(=O)[C@@H](NC(=O)[C@H](Cc1ccc(O)cc1)NC(=O)[C@H](CCC(N)=O)NC(=O)[C@H](CC(N)=O)NC(=O)[C@@H](Cc1ccccc1)NC(=O)[C@H](Cc1ccccc1)NC(=O)C1CCCN1C(=O)[C@H](O)Cc1ccccc1)C(C)C` (stereo partly drawn) [compound 24] (H-[dPhLac][ξP]F[dF]NQYV[Orn]L-SCH2CH2NHAc), the “cyclization by TycC TE domain” value [1] was “macrocyclized”.
In the case of “D-Ala-Pro-Phe-D-Phe-Asn-Gln-Tyr-Val-Orn-Leu-SNAC [Example 5]”, the “cyclization by TycC TE domain” value [1] was “arrests cyclization activity”, the kcat [1] was 0 and the “thioester hydrolysis by TycC TE (result in words)” value [1] was “observed”.
